Assay results reported in US9381173B2, “Isolated stereoisomeric forms of (S)2-N(3-O-(propan 2-Ol)-1-propyl-4-hydroxybenzene)-3-phenylpropylamide” (Novaremed Ltd., priority 2011, dated 2016).

Experiments:
[1] = system: tail flick model for nociceptive pain in mice; assay: Tail flick test for nociceptive pain; assay type: in vivo; conditions: for Mean latency time Post-treatment: 30 minutes after administration; for Mean latency time Pre-treatment: baseline a day before
Method: In the present study the analgesic effect of the substantially pure enantiomers E1 and E2 was evaluated using the tail flick model for nociceptive pain in mice.
The experiment was performed using male ICR strain 7 weeks old mice (25-27 g) (supplied by Harlan Israel, Ltd.)
Response to pain was assessed using the tail flick method which utilizes an Ugo Basile tail flick instrument. The animal is placed and held gently on the Ugo Basile tail flick (TF) instrument surface with the tail straight back and above a photoelectric cell that served as heat source. The heat source and timer are turned on by a foot pedal press, and automatically switch off when the animal flicks its tail off the emitter. Latency is measured and analyzed as an analgesic effect.
Description of the Study: The baseline tail flick was measured a day before the experiment started. On the day of the experiment, animal body weights were first measured followed by the IP administration of the test items (vehicle, morphine, NRD 13 S E1 and E2). 30 minutes after administration of the test items, the animals were subjected to the tail-flick testing. The tail-flick experiments were followed by blood sampling of all groups. The experiment was terminated after spinal cords and brains of all groups have been collected.
Statistics and Data Evaluation: All parameters are represented as means and standard error of the mean (SEM). Data was analyzed using a two tailed, unpaired T-test to compare each treatment group to the Vehicle treated animals. A two-tailed, paired T-test was used to compare the pre-treatment and post-treatment of each treatment group. Probability values p<0.01 and p<0.05 are considered significant.

BLK = BLK (Homo sapiens, UniProt P51451); assay: BLK mobility-shift kinase assay (Caliper LabChip 3000); assay type: biochemical; conditions: 5 concentrations, duplicate wells; listed as (S,S) enantiomer
Method: (§1) Each compound and concentration was tested in duplicate wells.
(§2) Data points are the averages of duplicate wells. Error bars represent the mean±replicate % activity.

Lyn A = Lyn A (Homo sapiens, UniProt P07948); assay: Lyn A mobility-shift kinase assay (Caliper LabChip 3000); assay type: biochemical; conditions: 5 concentrations, duplicate wells; listed as (S,S) enantiomer
Method: as §1, §2

[2] = Body weight in the Chung model study; assay type: in vivo, rats; conditions: for Mean group body weight Day 14: before first administration; for Mean group body weight Day 7: before treatment; for Mean group body weight Baseline: study day -1, before surgery and treatment
Method: Body Weights: Body weight was measured at regular intervals on study days −1 for baseline values and seven days after the surgery (study day 7).

Lyn B = Lyn B (Homo sapiens, UniProt P07948); assay: Lyn B mobility-shift kinase assay (Caliper LabChip 3000); assay type: biochemical; conditions: 5 concentrations, duplicate wells; listed as (S,S) enantiomer
Method: as §1, §2

Chain of Lyn B (P07948 1-491 isoform P07948-2, species assumed): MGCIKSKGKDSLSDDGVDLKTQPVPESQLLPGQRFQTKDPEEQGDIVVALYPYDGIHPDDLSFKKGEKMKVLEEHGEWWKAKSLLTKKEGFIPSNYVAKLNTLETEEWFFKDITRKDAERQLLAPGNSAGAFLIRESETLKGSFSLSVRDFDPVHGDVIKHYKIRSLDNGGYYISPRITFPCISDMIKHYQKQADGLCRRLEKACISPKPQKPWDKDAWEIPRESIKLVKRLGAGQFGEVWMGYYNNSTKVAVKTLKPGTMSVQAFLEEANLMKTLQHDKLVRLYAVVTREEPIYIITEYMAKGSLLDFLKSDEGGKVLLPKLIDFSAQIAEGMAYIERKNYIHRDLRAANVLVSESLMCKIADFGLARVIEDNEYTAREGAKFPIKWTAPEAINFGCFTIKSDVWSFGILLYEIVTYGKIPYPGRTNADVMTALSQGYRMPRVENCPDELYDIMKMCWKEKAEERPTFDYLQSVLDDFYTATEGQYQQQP
Chain of BLK (P51451 whole entry, species assumed): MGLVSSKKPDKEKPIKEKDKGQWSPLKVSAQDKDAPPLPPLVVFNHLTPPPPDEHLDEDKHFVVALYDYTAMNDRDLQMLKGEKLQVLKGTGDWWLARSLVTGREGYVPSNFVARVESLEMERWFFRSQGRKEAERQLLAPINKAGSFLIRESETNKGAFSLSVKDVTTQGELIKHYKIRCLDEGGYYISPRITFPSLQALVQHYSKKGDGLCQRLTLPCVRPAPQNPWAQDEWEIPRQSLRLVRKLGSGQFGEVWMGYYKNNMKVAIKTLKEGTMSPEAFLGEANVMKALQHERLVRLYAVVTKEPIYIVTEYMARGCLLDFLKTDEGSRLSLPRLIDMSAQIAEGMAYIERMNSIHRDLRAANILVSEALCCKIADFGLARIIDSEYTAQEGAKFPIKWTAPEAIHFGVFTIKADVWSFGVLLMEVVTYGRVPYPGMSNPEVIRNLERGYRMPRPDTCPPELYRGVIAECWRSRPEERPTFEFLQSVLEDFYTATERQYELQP
Chain of Lyn A (P07948 whole entry, species assumed): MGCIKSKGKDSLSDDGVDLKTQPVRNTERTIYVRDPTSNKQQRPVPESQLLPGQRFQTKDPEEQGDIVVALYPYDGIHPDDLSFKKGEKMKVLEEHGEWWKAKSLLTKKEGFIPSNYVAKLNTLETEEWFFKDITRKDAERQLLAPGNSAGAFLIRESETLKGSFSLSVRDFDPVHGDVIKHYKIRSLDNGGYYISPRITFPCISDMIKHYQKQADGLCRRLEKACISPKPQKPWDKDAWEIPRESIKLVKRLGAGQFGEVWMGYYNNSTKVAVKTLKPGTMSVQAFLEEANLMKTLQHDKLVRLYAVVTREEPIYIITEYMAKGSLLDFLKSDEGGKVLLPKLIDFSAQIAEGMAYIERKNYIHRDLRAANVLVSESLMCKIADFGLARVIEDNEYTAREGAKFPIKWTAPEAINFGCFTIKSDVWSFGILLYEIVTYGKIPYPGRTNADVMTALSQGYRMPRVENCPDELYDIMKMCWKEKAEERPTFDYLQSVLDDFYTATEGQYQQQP

Question: For `CC(O)COCC(Cc1ccc(O)cc1)NC(=O)CCc1ccccc1` (single isomer, unassigned) [E1], which “increase of latency time between pretreatment and post treatment” value ([1]; 3 mg/kg IP) is on record?
Answer: not statistically significant

Question: What about the “reducing pain when compared to the Vehicle” value ([1]; 3 mg/kg IP) of the same compound?
Answer: not significantly active in reducing pain

Question: What about the “Mean latency time Post-treatment” value ([1]; 3 mg/kg IP (group 3)) of the same compound?
Answer: 9.53 ± 0.85 s

Question: What about the “Mean latency time Pre-treatment” value ([1]; 3 mg/kg IP (group 3)) of the same compound?
Answer: 7.62 ± 0.74 s

Question: And the “Mean latency time Post-treatment” value ([1]; 10 mg/kg IP (groups 4, 6))?
Answer: 10.63 ± 0.64 s

Question: What about the “Mean latency time Pre-treatment” value ([1]; 10 mg/kg IP (groups 4, 6)) of the same compound?
Answer: 8.16 ± 0.39 s

Question: What about the “Mean latency time Post-treatment” value ([1]; 20 mg/kg IP (group 5)) of the same compound?
Answer: 10.65 ± 0.81 s

Question: And the “Mean latency time Pre-treatment” value ([1]; 20 mg/kg IP (group 5))?
Answer: 7.58 ± 0.41 s

Question: And the “conclusion: pain relief activity” value ([1]; dose of 3 mg/kg)?
Answer: significant pain relief activity only in the calculated difference

Question: And the “conclusion: reducing pain compared to the Vehicle treated group” value ([1]; doses of 10 mg/kg and 20 mg/kg)?
Answer: active in reducing pain

Question: What about the “pain relief activity by difference between pre- and post-treatment latency times vs. Vehicle” value ([1]; in particular at doses of 10 and 20 mg/kg (p<0.01)) of the same compound?
Answer: significant pain relief activity

Question: What about the “pain analgesic in animal models of pain” value ([1]; summary statement, listed as (S,S) enantiomer) of the same compound?
Answer: effective

Question: And the “modulation of BLK tyrosine kinase activity” value (BLK)?
Answer: activated

Question: And the “modulation of LynA tyrosine kinase activity” value (Lyn A)?
Answer: activated

Question: What about the “Mean group body weight Day 14” value ([2]; 7.5 mg/kg IP (group 5)) of the same compound?
Answer: 287.60 ± 5.14 g

Question: And the “Mean group body weight Day 7” value ([2]; 7.5 mg/kg IP (group 5))?
Answer: 258.90 ± 4.41 g

Question: What about the “Mean group body weight Baseline” value ([2]; 7.5 mg/kg IP (group 5)) of the same compound?
Answer: 245.80 ± 2.54 g

Question: What about the “Mean group body weight Day 21” value ([2]; 7.5 mg/kg IP once daily from day 14 (group 5)) of the same compound?
Answer: 303.80 ± 6.26 g

Question: What about the “Mean group body weight Day 14” value ([2]; 15 mg/kg IP (group 4)) of the same compound?
Answer: 289.80 ± 3.27 g

Question: And the “Mean group body weight Day 7” value ([2]; 15 mg/kg IP (group 4))?
Answer: 259.20 ± 3.29 g

Question: What about the “Mean group body weight Baseline” value ([2]; 15 mg/kg IP (group 4)) of the same compound?
Answer: 245.00 ± 2.80 g

Question: And the “Mean group body weight Day 21” value ([2]; 15 mg/kg IP once daily from day 14 (group 4))?
Answer: 298.50 ± 3.27 g

Question: What about the “Mean group body weight Day 14” value ([2]; 30 mg/kg IP (group 3)) of the same compound?
Answer: 288.70 ± 5.51 g

Question: What about the “Mean group body weight Day 7” value ([2]; 30 mg/kg IP (group 3)) of the same compound?
Answer: 261.20 ± 4.45 g

Question: And the “Mean group body weight Baseline” value ([2]; 30 mg/kg IP (group 3))?
Answer: 245.20 ± 3.19 g

Question: And the “Mean group body weight Day 21” value ([2]; 30 mg/kg IP once daily from day 14 (group 3))?
Answer: 303.30 ± 6.01 g

Question: What about the “modulation of LynB tyrosine kinase activity” value (Lyn B) of the same compound?
Answer: had no effect
